From patent publication US12319700B2, “Monohydrate potassium salt of a thienopyridone derivative and its preparation process” (POXEL, priority 2018, dated 2025)

How the values were obtained:
[1] = tested on: Spontaneous Hypertensive Rat (SHR); assay: Arterial pressure by telemetry in conscious unrestrained Spontaneous Hypertensive Rat (SHR); type: in vivo; conditions: 150 mg/kg bid for 5 days, over 24 h on the 5th day
Description: The effects of Compound (I) on arterial pressure was measured in conscious unrestrained well-known rat model of hypertension, the Spontaneous Hypertensive Rat (SHR), using telemetry. SHR aged of 21-22 weeks present a higher arterial pressure compared to healthy Wistar rats: systolic arterial pressure was 200 mmHg vs 120 mmHg in Wistar rats.
Four male SHR were submitted to surgery to implant a blood pressure catheter into the abdominal aorta. The telemetry transmitter was attached to the peritoneum. Ten days after recovery, the same animal received vehicle or Compound (I) 150 mg/kg bid administered for 5 days, 5 weeks apart. Systolic, diastolic and mean arterial pressures were recorded during 24 h, the 5th day of treatment.

ob/ob mice [2] = assay: Dyslipidemia in male obese diabetic dyslipidemic ob/ob mice, 5 weeks of treatment; type: in vivo, mouse
Description: (§1) Effects of Compound (I) in male obese diabetic dyslipidemic ob/ob mice after 5 weeks of treatment.
(§2) Compound (I) was administered at 25, 50 and 100 mg/kg twice a day by oral route in carboxy methylcellulose 0.5%/Tween 80 (98/2) (n=10). A group of ob/ob mice was treated with carboxy methylcellulose 0.5%/Tween 80 (98/2) as a control group.

AMPK = AMPK activity (P-AMPK/AMPK) in liver and visceral adipose tissue of DIO-NASH mice; type: in vivo, mouse; conditions: 8 weeks; for increase of AMPK activity in the liver (P-AMPK/AMPK): p<0.05
Description: (§3) • The effects of the monohydrate potassium salt of formula (I) (or “Compound (I)”) on liver and adipose tissue (AT) metabolism in a diet-induced obesity non-alcoholic steatohepatitis (DIO-NASH) mouse model are reported here.
(§4) After 41 weeks, only DIO-NASH mice with biopsy-confirmed steatosis (score ≥2) and fibrosis (stage ≥1) were included and received orally (n=12) vehicle (ctrl), compound (I) 35 or 75 mg/kg twice daily for 8 weeks.

[3] = tested on: diet-induced obesity non-alcoholic steatohepatitis (DIO-NASH) mouse model; assay: Diet-induced obesity NASH (DIO-NASH) mouse model: effects on liver and adipose tissue metabolism; type: in vivo; conditions: 8 weeks; for change of liver weight compared to ctrl group / decrease in hepatic stellate cell activation (aSMA positive staining) / decrease in plasma free fatty acid level / increase of PGCl-α protein expression in AT / reduction of fat pad mass / reduction of liver TG content / hormone-sensitive lipase P-HSLser565 / down-regulation of fibrotic gene expression (type I collagen): p<0.01; for hormone-sensitive lipase P-HSLser563 / hormone-sensitive lipase P-HSLser565: adipose tissue; for down-regulation of fibrotic gene expression (type I collagen): liver
Description: as §3, §4

ob/ob mice [4] = assay: Body weight in male obese diabetic dyslipidemic ob/ob mice, 5 weeks of treatment; type: in vivo, mouse
Description: as §1, §2

[5] = 50 mg/kg twice a day oral, p<0.001
[6] = 100 mg/kg twice a day oral, p<0.001

With `O=c1[nH]c2sc(Cl)c(-c3ccc4c(c3O)CCCC4)c2c([O-])c1-c1ccccc1.[K+]` [Compound (I), monohydrate potassium salt of 2-chloro-4-hydroxy-3-(5-hydroxytetralin-6-yl)-5-phenyl-7H-thieno[2,3-b]pyridin-6-one] the “reduction of diastolic arterial pressure (DAP) compared to vehicle-treated SHR” value [1] was −17 mmHg, the “reduction of mean arterial pressure (MAP) compared to vehicle-treated SHR” value [1] was −18 mmHg and the “reduction of systolic arterial pressure (SAP) compared to vehicle-treated SHR” value [1] was −19 mmHg. The “decrease of plasma FFA” value (ob/ob mice [2]; 25 mg/kg twice a day oral, NS) was −14%, the “decrease of plasma triglyceride” value (ob/ob mice [2]; 25 mg/kg twice a day oral, NS) was −19% and the “increase in HDL cholesterol” value (ob/ob mice [2]; 25 mg/kg twice a day oral, NS) was “+12%”. The “decrease of plasma triglyceride” value (ob/ob mice [2]; [5]) was −40%, the “increase in HDL cholesterol” value (ob/ob mice [2]; [5]) was “+31%” and the “decrease of plasma FFA” value (ob/ob mice [2]; 50 mg/kg twice a day oral, p<0.05) was −35%. For the same molecule, the “decrease of plasma FFA” value (ob/ob mice [2]; 100 mg/kg twice a day oral, NS) was −21%, the “decrease of plasma triglyceride” value (ob/ob mice [2]; [6]) was −43% and the “increase in HDL cholesterol” value (ob/ob mice [2]; [6]) was “+32%”. The “AMPK activation in visceral AT (P-AMPK/AMPK)” value (AMPK; 35 mg/kg orally twice daily, ns) was “+130%”, the “increase of AMPK activity in the liver (P-AMPK/AMPK)” value (AMPK; 35 mg/kg orally twice daily) was “+128%” and the “AMPK activation in visceral AT (P-AMPK/AMPK)” value (AMPK; 75 mg/kg orally twice daily, p<0.01) was “+152%”. The “increase of AMPK activity in the liver (P-AMPK/AMPK)” value (AMPK; 75 mg/kg orally twice daily) was “+143%”, the “reduction of NAFLD Activity Score (NAS)” value ([3]; 35 mg/kg orally twice daily, from 6.6, p<0.01) was −32% and the “change of liver weight compared to ctrl group” value ([3]; 35 mg/kg orally twice daily) was −23%. For the same molecule, the “decrease in hepatic stellate cell activation (aSMA positive staining)” value ([3]; 35 mg/kg orally twice daily) was −34%, the “decrease in plasma free fatty acid level” value ([3]; 35 mg/kg orally twice daily) was −37% and the “increase of PGCl-α protein expression in AT” value ([3]; 35 mg/kg orally twice daily) was “+321%”. For the same molecule, the “reduction of fat pad mass” value ([3]; 35 mg/kg orally twice daily) was −25%, the “reduction of liver TG content” value ([3]; 35 mg/kg orally twice daily) was −36% and the “NAFLD Activity Score (NAS) after treatment” value ([3]; 35 mg/kg orally twice daily, from 6.6) was 4.5. For the same molecule, the “reduction of NAFLD Activity Score (NAS)” value ([3]; 75 mg/kg orally twice daily, from 6.7, p<0.01) was −44%, the “change of liver weight compared to ctrl group” value ([3]; 75 mg/kg orally twice daily) was −33% and the “decrease in hepatic stellate cell activation (aSMA positive staining)” value ([3]; 75 mg/kg orally twice daily) was −39%. For the same molecule, the “decrease in plasma free fatty acid level” value ([3]; 75 mg/kg orally twice daily) was −38%, the “increase of PGCl-α protein expression in AT” value ([3]; 75 mg/kg orally twice daily) was “+409%” and the “reduction of fat pad mass” value ([3]; 75 mg/kg orally twice daily) was −37%. For the same molecule, the “reduction of liver TG content” value ([3]; 75 mg/kg orally twice daily) was −42%, the “decrease of MCP-1 gene expression in AT” value ([3]; 75 mg/kg orally twice daily, p<0.05) was −55% and the “NAFLD Activity Score (NAS) after treatment” value ([3]; 75 mg/kg orally twice daily, from 6.7) was 3.8. For the same molecule, the “hormone-sensitive lipase P-HSLser563” value ([3]; 35 mg/kg orally twice daily) was −67%, the “hormone-sensitive lipase P-HSLser565” value ([3]; 35 mg/kg orally twice daily) was “+416%” and the “hormone-sensitive lipase P-HSLser563” value ([3]; 75 mg/kg orally twice daily) was −52%. The “hormone-sensitive lipase P-HSLser565” value ([3]; 75 mg/kg orally twice daily) was “+425%”, the “down-regulation of fibrotic gene expression (type I collagen)” value ([3]; 35 mg/kg orally twice daily) was −65% and the “down-regulation of fibrotic gene expression (type I collagen)” value ([3]; 75 mg/kg orally twice daily) was −68%. The “decrease of body weight compared to day 1” value (ob/ob mice [4]; 25 mg/kg twice a day oral) was −17% and the “decrease of body weight compared to day 1” value (ob/ob mice [4]; 50 mg/kg twice a day oral) was −24%.
